According to patent US10858407B2 (priority 2014, dated 2020):

Test system: potassium ion channel current of the DRG neurons
Type: cell-based, SD rats
Settings: 5 mM

## Nc1ccncc1 [4AP, 4-aminopyridine]
  Current inhibition rate: 0.338
  Current recorded after loading: 0.9766 nA
